Values of other authors, collected in publication PMC11187563, “The importance of tyrosines in multimers of cyclic RGD nonapeptides: towards αvβ6-integrin targeted radiotherapeutics” (RSC Medicinal Chemistry, 2024).

System: αvβ6-integrin
Details: compared with its two siblings with one Phe replaced by a Tyr; cited from earlier work

Question: Which “αvβ6-integrin affinity and subtype selectivity” value does the source give for cyclo[FRGDLAFp(NMe)K] here?
Answer: slightly better αvβ6-integrin affinity and subtype selectivity
